Measurements taken from the kinase profiling compilation of Christmann-Franck et al. (2016).

What was measured:
Test in all cases: radiometric filter-binding kinase assay, Kinase HotSpot
Details in all cases: compound 0.5 µM; ATP 10 µM
[1] = molecular target: TGFBR1 (human) (UniProt P36897)
[2] = molecular target: DDR2 (human) (UniProt Q16832)
[3] = molecular target: NEK11 (human) (UniProt Q8NG66)
[4] = molecular target: MAP3K10 (human) (UniProt Q02779)
[5] = molecular target: MST1R (human) (UniProt Q04912)
[6] = molecular target: MAPKAPK2 (human) (UniProt P49137)
MAPKAPK2 (human), sequence (P49137 whole entry, looked up): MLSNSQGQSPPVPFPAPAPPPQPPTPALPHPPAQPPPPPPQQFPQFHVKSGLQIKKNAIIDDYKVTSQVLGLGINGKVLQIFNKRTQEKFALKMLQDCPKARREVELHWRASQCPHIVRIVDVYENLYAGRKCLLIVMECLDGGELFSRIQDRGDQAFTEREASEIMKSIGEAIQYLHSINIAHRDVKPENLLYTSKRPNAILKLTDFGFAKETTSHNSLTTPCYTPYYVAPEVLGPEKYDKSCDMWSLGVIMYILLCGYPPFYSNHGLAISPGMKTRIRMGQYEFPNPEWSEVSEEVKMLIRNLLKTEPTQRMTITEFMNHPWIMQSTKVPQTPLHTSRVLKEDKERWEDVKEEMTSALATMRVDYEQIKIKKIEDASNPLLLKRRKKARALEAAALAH

[7] = molecular target: IKBKB (human) (UniProt O14920)
[8] = molecular target: DMPK (human) (UniProt Q09013)
[9] = molecular target: TEK (human) (UniProt Q02763)
[10] = molecular target: MERTK (human) (UniProt Q12866)
[11] = molecular target: CSNK1G3 (human) (UniProt Q9Y6M4)
[12] = molecular target: NTRK1 (human) (UniProt P04629)
[13] = molecular target: DYRK3 (human) (UniProt O43781)
[14] = molecular target: EGFR (human) (UniProt P00533)
[15] = molecular target: RAF1 (human) (UniProt P04049)
[16] = molecular target: TYK2 JH1 catalytic (human) (UniProt P29597)
[17] = molecular target: EPHA1 (human) (UniProt P21709)
EPHA1 (human), sequence (P21709 whole entry, looked up): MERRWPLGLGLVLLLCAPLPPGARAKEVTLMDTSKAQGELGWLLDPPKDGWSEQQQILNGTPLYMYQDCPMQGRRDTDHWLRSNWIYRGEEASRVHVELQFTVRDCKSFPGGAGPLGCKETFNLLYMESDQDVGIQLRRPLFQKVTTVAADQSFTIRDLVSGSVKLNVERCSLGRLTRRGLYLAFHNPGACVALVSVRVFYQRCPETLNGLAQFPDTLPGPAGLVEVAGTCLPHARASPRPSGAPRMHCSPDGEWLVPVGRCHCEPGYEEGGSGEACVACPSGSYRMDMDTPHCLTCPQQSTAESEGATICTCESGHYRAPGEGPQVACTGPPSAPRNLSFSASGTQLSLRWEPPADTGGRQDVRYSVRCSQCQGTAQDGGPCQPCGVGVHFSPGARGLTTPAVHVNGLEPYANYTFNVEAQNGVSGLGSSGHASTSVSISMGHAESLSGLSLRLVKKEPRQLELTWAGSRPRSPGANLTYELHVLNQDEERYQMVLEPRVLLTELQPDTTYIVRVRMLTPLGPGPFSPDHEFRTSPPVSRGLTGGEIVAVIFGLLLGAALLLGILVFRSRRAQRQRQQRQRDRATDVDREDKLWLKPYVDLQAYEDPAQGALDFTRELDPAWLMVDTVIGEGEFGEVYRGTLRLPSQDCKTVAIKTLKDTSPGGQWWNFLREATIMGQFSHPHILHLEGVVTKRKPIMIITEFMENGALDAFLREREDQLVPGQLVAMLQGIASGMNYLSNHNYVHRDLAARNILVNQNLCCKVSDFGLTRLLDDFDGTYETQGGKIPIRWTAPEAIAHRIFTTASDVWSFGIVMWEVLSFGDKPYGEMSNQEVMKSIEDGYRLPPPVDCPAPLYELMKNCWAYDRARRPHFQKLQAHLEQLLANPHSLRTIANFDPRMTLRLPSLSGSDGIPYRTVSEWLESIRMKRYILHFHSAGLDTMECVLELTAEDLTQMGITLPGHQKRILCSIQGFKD

[18] = molecular target: EPHB4 (human) (UniProt P54760)
[19] = molecular target: EPHA3 (human) (UniProt P29320)
[20] = molecular target: MET (human) (UniProt P08581)
MET (human), sequence (P08581 whole entry, looked up): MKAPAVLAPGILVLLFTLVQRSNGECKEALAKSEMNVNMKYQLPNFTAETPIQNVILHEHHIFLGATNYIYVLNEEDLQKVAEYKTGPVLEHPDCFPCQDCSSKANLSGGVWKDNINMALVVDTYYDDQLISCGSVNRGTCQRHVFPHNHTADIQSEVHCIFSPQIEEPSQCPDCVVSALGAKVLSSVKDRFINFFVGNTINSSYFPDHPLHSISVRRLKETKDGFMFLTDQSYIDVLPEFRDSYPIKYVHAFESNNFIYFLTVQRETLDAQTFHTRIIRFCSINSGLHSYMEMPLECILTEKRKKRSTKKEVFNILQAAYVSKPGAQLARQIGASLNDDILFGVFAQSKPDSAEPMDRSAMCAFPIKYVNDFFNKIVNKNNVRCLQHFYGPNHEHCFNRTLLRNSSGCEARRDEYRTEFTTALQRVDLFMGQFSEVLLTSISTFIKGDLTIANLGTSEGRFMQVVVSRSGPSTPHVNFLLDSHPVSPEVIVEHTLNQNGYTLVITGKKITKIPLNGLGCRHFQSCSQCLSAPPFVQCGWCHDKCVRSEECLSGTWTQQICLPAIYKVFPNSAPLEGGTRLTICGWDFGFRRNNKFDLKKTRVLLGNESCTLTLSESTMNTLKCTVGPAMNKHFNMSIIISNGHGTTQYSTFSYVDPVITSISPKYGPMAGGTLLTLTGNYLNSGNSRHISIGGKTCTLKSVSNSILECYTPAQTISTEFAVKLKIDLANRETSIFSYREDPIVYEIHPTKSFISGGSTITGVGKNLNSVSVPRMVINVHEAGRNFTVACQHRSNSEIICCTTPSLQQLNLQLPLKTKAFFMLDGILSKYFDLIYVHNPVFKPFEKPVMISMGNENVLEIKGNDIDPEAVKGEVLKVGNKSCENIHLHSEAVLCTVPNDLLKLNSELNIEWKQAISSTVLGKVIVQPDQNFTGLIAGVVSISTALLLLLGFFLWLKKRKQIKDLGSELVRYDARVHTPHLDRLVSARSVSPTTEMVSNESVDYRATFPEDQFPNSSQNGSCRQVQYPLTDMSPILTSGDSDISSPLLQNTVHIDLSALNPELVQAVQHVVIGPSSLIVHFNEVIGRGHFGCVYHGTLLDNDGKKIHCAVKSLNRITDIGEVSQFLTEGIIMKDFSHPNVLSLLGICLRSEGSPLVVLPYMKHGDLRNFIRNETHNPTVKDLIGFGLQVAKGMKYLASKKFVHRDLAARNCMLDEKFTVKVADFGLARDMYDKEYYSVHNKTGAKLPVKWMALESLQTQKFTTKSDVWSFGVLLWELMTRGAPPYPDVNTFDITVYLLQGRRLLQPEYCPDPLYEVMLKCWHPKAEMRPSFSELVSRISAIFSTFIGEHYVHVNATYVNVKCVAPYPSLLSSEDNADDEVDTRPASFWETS

[21] = molecular target: KIT (human) (UniProt P10721)
[22] = molecular target: CHUK (human) (UniProt O15111)
[23] = molecular target: PAK6 (human) (UniProt Q9NQU5)
[24] = molecular target: SGK2 (human) (UniProt Q9HBY8)
SGK2 (human), sequence (Q9HBY8 whole entry, looked up): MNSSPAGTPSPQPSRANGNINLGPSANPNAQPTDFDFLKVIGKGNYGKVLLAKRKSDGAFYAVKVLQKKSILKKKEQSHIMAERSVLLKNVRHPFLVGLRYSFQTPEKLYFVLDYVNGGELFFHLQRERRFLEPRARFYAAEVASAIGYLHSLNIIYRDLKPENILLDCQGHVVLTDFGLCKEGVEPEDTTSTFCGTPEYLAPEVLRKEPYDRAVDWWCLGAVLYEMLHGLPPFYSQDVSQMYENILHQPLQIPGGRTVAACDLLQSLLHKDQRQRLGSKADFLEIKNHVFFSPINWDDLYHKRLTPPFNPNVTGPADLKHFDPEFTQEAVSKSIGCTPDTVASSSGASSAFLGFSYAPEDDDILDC

[25] = molecular target: PAK1 (human) (UniProt Q13153)
[26] = molecular target: GSK3B (human) (UniProt P49841)
[27] = molecular target: AKT2 (human) (UniProt P31751)
[28] = molecular target: PAK2 (human) (UniProt Q13177)
[29] = molecular target: CLK4 (human) (UniProt Q9HAZ1)
CLK4 (human), sequence (Q9HAZ1 whole entry, looked up): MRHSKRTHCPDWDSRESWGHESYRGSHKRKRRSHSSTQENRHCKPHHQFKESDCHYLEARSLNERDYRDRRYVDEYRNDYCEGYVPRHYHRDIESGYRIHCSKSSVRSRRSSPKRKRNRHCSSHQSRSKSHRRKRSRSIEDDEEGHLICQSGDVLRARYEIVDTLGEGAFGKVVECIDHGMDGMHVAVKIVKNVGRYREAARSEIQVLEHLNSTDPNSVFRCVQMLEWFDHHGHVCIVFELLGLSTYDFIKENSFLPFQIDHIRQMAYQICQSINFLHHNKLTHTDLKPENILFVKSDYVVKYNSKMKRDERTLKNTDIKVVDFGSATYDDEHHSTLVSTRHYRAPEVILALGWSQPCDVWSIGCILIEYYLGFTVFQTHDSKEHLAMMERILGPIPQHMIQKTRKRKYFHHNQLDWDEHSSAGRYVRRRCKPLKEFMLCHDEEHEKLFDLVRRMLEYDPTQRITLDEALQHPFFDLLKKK

[30] = molecular target: MAPK9 (human) (UniProt P45984)
[31] = molecular target: DAPK1 (human) (UniProt P53355)
DAPK1 (human), sequence (P53355 whole entry, looked up): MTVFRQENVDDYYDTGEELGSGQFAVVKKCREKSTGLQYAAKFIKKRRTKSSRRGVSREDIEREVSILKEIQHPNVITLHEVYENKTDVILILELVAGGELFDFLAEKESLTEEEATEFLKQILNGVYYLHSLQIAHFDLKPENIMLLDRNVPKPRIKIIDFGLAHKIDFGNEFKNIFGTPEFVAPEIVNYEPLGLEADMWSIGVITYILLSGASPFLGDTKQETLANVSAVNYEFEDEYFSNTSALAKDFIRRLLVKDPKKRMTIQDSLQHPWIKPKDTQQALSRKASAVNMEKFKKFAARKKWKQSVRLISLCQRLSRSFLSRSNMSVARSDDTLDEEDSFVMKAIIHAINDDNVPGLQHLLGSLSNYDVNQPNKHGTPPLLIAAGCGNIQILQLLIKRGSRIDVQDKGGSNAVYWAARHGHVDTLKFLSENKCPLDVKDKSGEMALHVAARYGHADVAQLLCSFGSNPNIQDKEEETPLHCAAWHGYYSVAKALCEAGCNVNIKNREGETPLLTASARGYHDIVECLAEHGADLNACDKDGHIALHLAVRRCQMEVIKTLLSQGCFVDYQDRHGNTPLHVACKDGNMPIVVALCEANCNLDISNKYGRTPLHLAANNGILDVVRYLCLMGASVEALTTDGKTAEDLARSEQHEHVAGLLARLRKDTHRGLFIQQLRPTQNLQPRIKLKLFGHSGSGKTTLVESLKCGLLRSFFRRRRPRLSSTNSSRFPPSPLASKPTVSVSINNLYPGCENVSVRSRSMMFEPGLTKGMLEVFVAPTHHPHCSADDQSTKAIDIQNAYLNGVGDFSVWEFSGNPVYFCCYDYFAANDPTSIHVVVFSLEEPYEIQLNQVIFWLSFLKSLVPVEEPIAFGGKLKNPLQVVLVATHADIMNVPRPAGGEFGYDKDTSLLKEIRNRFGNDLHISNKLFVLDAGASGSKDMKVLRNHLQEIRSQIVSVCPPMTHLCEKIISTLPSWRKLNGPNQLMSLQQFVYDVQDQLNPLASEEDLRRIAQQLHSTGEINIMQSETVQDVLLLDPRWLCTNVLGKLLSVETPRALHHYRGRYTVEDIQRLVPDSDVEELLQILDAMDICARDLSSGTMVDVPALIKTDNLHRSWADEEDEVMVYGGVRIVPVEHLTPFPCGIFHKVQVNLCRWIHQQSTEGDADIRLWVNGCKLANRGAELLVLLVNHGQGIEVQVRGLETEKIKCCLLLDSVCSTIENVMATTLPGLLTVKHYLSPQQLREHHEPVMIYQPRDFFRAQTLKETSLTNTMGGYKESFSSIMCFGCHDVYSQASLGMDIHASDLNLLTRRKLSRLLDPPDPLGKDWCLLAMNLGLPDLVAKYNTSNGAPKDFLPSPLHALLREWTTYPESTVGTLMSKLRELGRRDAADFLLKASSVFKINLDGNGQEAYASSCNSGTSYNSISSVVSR

[32] = molecular target: ROCK1 (human) (UniProt Q13464)
[33] = molecular target: ZAP70 (human) (UniProt P43403)
[34] = molecular target: IKBKE (human) (UniProt Q14164)
[35] = molecular target: HIPK2 (human) (UniProt Q9H2X6)
[36] = molecular target: MARK4 (human) (UniProt Q96L34)
[37] = molecular target: SYK (human) (UniProt P43405)
[38] = molecular target: WNK3 (human) (UniProt Q9BYP7)
[39] = molecular target: CDK1 CCNA2 (human) (UniProt P06493+P20248)
[40] = molecular target: CSNK2A2 (human) (UniProt P19784)
[41] = molecular target: BRSK2 (human) (UniProt Q8IWQ3)
[42] = molecular target: NEK4 (human) (UniProt P51957)

O=C1Nc2ccc(Cl)cc2/C1=C/c1cc(Cl)c(O)c(Cl)c1
residual activity [1]: 102%
residual activity [2]: 85.8%
residual activity [3]: 104%
residual activity [4]: 86.8%
residual activity [5]: 94.8%
residual activity [6]: 100%
residual activity [7]: 93.6%
residual activity [8]: 112%
residual activity [9]: 93%
residual activity [10]: 88.4%
residual activity [11]: 93%
residual activity [12]: 87.4%
residual activity [13]: 91.8%
residual activity [14]: 93.5%
residual activity [15]: 6.93%
residual activity [16]: 26.9%
residual activity [17]: 88.9%
residual activity [18]: 100%
residual activity [19]: 82.5%
residual activity [20]: 96.4%
residual activity [21]: 35%
residual activity [22]: 97%
residual activity [23]: 97%
residual activity [24]: 89.2%
residual activity [25]: 97.2%
residual activity [26]: 80.8%
residual activity [27]: 93.9%
residual activity [28]: 96.8%
residual activity [29]: 60.7%
residual activity [30]: 100%
residual activity [31]: 90%
residual activity [32]: 93.2%
residual activity [33]: 95%
residual activity [34]: 94.7%
residual activity [35]: 122%
residual activity [36]: 78.4%
residual activity [37]: 93.3%
residual activity [38]: 90.7%
residual activity [39]: 91.9%
residual activity [40]: 33.3%
residual activity [41]: 77.2%
residual activity [42]: 88.2%

O=C(Nc1cccc(Nc2nccc(Nc3cccc(C(F)(F)F)c3)n2)c1)C1CC1
residual activity [1]: 102%
residual activity [2]: 81.7%
residual activity [3]: 102%
residual activity [4]: 96.4%
residual activity [5]: 92.6%
residual activity [6]: 102%
residual activity [7]: 97.9%
residual activity [8]: 101%
residual activity [9]: 101%
residual activity [10]: 90.1%
residual activity [11]: 93.5%
residual activity [12]: 98.1%
residual activity [13]: 101%
residual activity [14]: 87.6%
residual activity [15]: 98.7%
residual activity [16]: 42.5%
residual activity [17]: 81.8%
residual activity [18]: 91.3%
residual activity [19]: 105%
residual activity [20]: 87.7%
residual activity [21]: 86.1%
residual activity [22]: 95.7%
residual activity [23]: 100%
residual activity [24]: 118%
residual activity [25]: 89.5%
residual activity [26]: 101%
residual activity [27]: 107%
residual activity [28]: 105%
residual activity [29]: 84.3%
residual activity [30]: 98.7%
residual activity [31]: 83.5%
residual activity [32]: 101%
residual activity [33]: 126%
residual activity [34]: 97.5%
residual activity [35]: 103%
residual activity [36]: 108%
residual activity [37]: 101%
residual activity [38]: 105%
residual activity [39]: 95.9%
residual activity [40]: 95.4%
residual activity [41]: 89.3%
residual activity [42]: 83.4%

COc1cc2ncnc(Nc3cccc(Cl)c3)c2cc1OC
residual activity [1]: 100%
residual activity [2]: 99.2%
residual activity [3]: 96.9%
residual activity [4]: 101%
residual activity [5]: 87.8%
residual activity [6]: 98%
residual activity [7]: 102%
residual activity [8]: 102%
residual activity [9]: 88.6%
residual activity [10]: 76.9%
residual activity [11]: 92.4%
residual activity [12]: 92.6%
residual activity [13]: 96.3%
residual activity [14]: 0.718%
residual activity [15]: 78.4%
residual activity [16]: 98.1%
residual activity [17]: 81.7%
residual activity [18]: 59.7%
residual activity [19]: 97.9%
residual activity [20]: 75.5%
residual activity [21]: 94%
residual activity [22]: 103%
residual activity [23]: 81.6%
residual activity [24]: 97.8%
residual activity [25]: 89.3%
residual activity [26]: 98.7%
residual activity [27]: 84.1%
residual activity [28]: 90.7%
residual activity [29]: 98.2%
residual activity [30]: 92.2%
residual activity [31]: 108%
residual activity [32]: 95.9%
residual activity [33]: 102%
residual activity [34]: 101%
residual activity [35]: 88.8%
residual activity [36]: 98.5%
residual activity [37]: 86.9%
residual activity [38]: 97.8%
residual activity [39]: 94.9%
residual activity [40]: 92.3%
residual activity [41]: 96.7%
residual activity [42]: 87.5%

COc1ccc2c(c[n+](C)c3c4cc5c(cc4ccc23)OCO5)c1OC
residual activity [1]: 98.5%
residual activity [2]: 96.1%
residual activity [3]: 106%
residual activity [4]: 91.7%
residual activity [5]: 97.8%
residual activity [6]: 103%
residual activity [7]: 103%
residual activity [8]: 100%
residual activity [9]: 97.2%
residual activity [10]: 90.8%
residual activity [11]: 92.5%
residual activity [12]: 89.8%
residual activity [13]: 101%
residual activity [14]: 99.6%
residual activity [15]: 96.7%
residual activity [16]: 108%
residual activity [17]: 98.3%
residual activity [18]: 91.7%
residual activity [19]: 94.9%
residual activity [20]: 94.7%
residual activity [21]: 68.8%
residual activity [22]: 97.5%
residual activity [23]: 96.1%
residual activity [24]: 99.1%
residual activity [25]: 98.7%
residual activity [26]: 88.3%
residual activity [27]: 93.6%
residual activity [28]: 101%
residual activity [29]: 89.9%
residual activity [30]: 102%
residual activity [31]: 86.7%
residual activity [32]: 99.4%
residual activity [33]: 101%
residual activity [34]: 101%
residual activity [35]: 92.6%
residual activity [36]: 99.3%
residual activity [37]: 98.8%
residual activity [38]: 101%
residual activity [39]: 89.7%
residual activity [40]: 89.7%
residual activity [41]: 97%
residual activity [42]: 96.6%
